Laboratory results as given in patent US4990613A, “(1R,5S,6S)-2-[(6,7-dih ydro-5H-pyrazolo[1,2-a][1,2,4]triazolium-6-yl)]thio-6-[R-1-hydroxyethyl]- 1-methyl-carbapenem-3-carboxylate and intermediate therefor” (Lederle (Japan), Ltd., priority 1987, dated 1991).

System: Swine Kidney Dehydropeptidase-I (DHP-I)
Assay: Stability of test compounds against DHP-I by HPLC
Format: in vitro ADME
Description: The swine kidney (8 kg) was homogenized and an enzyme protein was allowed to precipitate. After a connective lipid was removed with acetone, the resultant material was made soluble by treatment with butanol and purified in the order by the ammonium sulfate fraction method, thereby producing DPH-I enzyme from a 75% ammonium sulfate fraction.
The DHP-I enzyme was then adjusted to give an enzyme concentration of 25 mg/10 ml (phosphate buffer, pH 7.1), and divided into 1 ml portions. The portions were frozen and stored at -40° C. or less until use.
As a test compound was used the compound (15) obtained in Example 6 that follows.
The test compounds was adjusted in situ to give the concentration of […] with a 50 mM sodium phosphate buffer solution (pH=7.1).
As control compounds were employed glycyl dehydrophenylalanine (Gl-dh-Ph) and imipenem, and they were adjusted in situ each to give the concentration of 177 μM with the same sodium phosphate buffer solution.
The test compound according to the present invention and the control compounds have been treated in substantially the same manner as (1) above. The incubation, however, was conducted at 37° C. for 4.5 hours or for 24 hours. A degree of the hydrolysis of the compounds each after the test periods of time was measured by the HPLC method.

C[C@@H](O)[C@H]1C(=O)N2C(C(=O)O)=C(SCCN=CN)C[C@H]12 [Imipenem]
Degree of hydrolysis by DHP-I (37° C. 4.5 hours, substrate concentration 100 μM, HPLC): 77.6 µM | Degree of hydrolysis by DHP-I (in words) (after 24 hours at 37° C., footnote * of Table 3): imipenem has been decomposed and nothing remained was detected
